US20150037253A1, “METAL COMPLEXES AS IMAGING AGENTS” (The University of Melbourne, priority 2011, published 2015)
Blank lines part the entries; values can stand above or below the compound they belong to.

What was measured:
Aβ plaques = experiment: Fluorescence staining of human AD brain tissue sections, co-localisation with 1E8 immunostaining; assay type: binding; conditions: post-mortem AD human brain, 7 μm serial sections, BSA pre-treated
Source text: Fluorescence Staining of Human AD Brain. Tissues(^10) Paraffin preserved brain tissue blocks were provided by the Victoria Brain Bank Network. Brain tissue was collected at autopsy. The National Neural Tissue Resource Centre performed Sourcing and preparation of human brain tissue. AD pathologic diagnosis was made according to standard National Institute on Aging-Reagan Institute criteria. Determination of age-matched Human control (HC) cases was subject to the above criteria. The AD and HC brain tissues sections ([…]) were first de-paraffined (xylene, 3×2 min) followed by rehydration (soaking in a series of 100%, 90%, 70% and 0% v/v ethanol/di water). The hydrated tissue sections were washed in phosphate buffer saline (PBS, 5 min). Auto-fluorescence of the tissue was quenched using potassium permanganate (0.25% in PBS, 20 min) and washing with PBS (2×2 min) to remove the excess. […] Finally, the sections were washed with PBS (3×2 min), di water and mounted with non-fluorescent mounting media (Dako), Fluorescence images were visualised using a Leica (Bannockburn, Ill.) DM1RB microscope. […] The tissue was subsequently examined by fluorescent microscopy (epi-fluorescence, λex=420 nm, λex=470 nm) and compared to a sequential brain tissue cross section immunostained with an Aβ antibody (1 E8). […]

[1] = Cyclic voltammetry, Cu(II)/Cu(I) reduction potential; assay type: physicochemical; conditions: vs. SCE, in DMF, glassy carbon electrode
Experimental: Cyclic voltammograms were recorded using an AUTOLAB PGSTAT100 equipped with GPES V4.9 software. Measurements of the complexes were carried out at approximately 1×10^−3 M in dimethylformamide with tetrabutylammonium tetrafluoroborate (1×10^−1 M) as electrolyte using a glassy carbon disk (d, 3 mm) working electrode, a Pt wire counter/auxiliary electrode, and a Ag/Ag^+ pseudo reference electrode (silver wire in H2O (KCl (0.1 M)) AgNO3 (0.01 M)). Ferrocene was used as an internal reference (Em(Fc/Fc^+)=0.54 V vs. SCE), where Em refers to the midpoint between a reversible reductive (Epc) and oxidative (Epa) couple, given by Em=(Epc+Epa)/2. Irreversible systems are only given reductive (Epc) and oxidative (Epa) values, respectively.

[2] = Partition coefficients (Log D) for 64Cu complexes; assay type: physicochemical; conditions: 64Cu complex of the listed ligand

binding to Aβ plaques (co-localisation of epi-fluorescence with 1E8 antibody immunostaining) (Aβ plaques): binding selectively to Aβ plaques
SMILES: CC(=N\NC(=S)NCCN(C)C)/C(C)=N/Nc1ccc(/C=C/c2ccc(N(C)C)cc2)cn1 [Example H2L3, Diacetyl-2-((E)-2-hydrazino-pyridinyl-4-(4′-N,N-dimethylaminostilbene))-(4-dimethylaminoethyl-3-thiosemicarbazone)]

reduction potential Em (Cu^II/Cu^I couple) [1]: −0.59 V
SMILES: CN=C([S-])N/N=C(C)/C(C)=N/NC([S-])=NC.[Cu+2] [CuII (atsm)]

Log D of complex [2]: 1.48
SMILES: CNC(S)=NN=C(C)C(C)=NN=C(S)NC [atsmH2a]
